Assay results taken from ChEMBL document CHEMBL3046198, “Insecticidal and antifungal activities of aminorhodanine derivatives” (1998).
≈ marks a conversion by molar mass, not a printed value.

Experiments:
Type in all cases: functional
[1] = system: Musca domestica; assay: Insecticidal activity against Musca domestica (house fly) assessed as mortality at 0.05 ug/insect after 24 hr
[2] = system: Musca domestica; assay: Insecticidal activity against Musca domestica (house fly) assessed as mortality at 0.10 ug/insect after 24 hr
[3] = system: Musca domestica; assay: Insecticidal activity against Musca domestica (house fly) assessed as mortality at 0.25 ug/insect after 24 hr
[4] = system: Musca domestica; assay: Insecticidal activity against Musca domestica (house fly) assessed as mortality at 0.5 ug/insect after 24 hr
[5] = system: Musca domestica; assay: Insecticidal activity against Musca domestica (house fly) assessed as mortality at 1 ug/insect after 24 hr
[6] = system: Musca domestica; assay: Insecticidal activity against Musca domestica (house fly) assessed as mortality at 2 ug/insect after 24 hr
[7] = system: Musca domestica; assay: Insecticidal activity against Musca domestica (house fly) assessed as mortality at 4 ug/insect after 24 hr
[8] = system: Musca domestica; assay: Insecticidal activity against Musca domestica (house fly) assessed as mortality at 5 ug/insect after 24 hr
[9] = system: Culex pipiens pallens; assay: Insecticidal activity against Culex pipiens pallens (mosquito) assessed as mortality at 0.025 ug/insect after 24 hr
[10] = system: Culex pipiens pallens; assay: Insecticidal activity against Culex pipiens pallens (mosquito) assessed as mortality at 0.05 ug/insect after 24 hr
[11] = system: Culex pipiens pallens; assay: Insecticidal activity against Culex pipiens pallens (mosquito) assessed as mortality at 0.10 ug/insect after 24 hr
[12] = system: Culex pipiens pallens; assay: Insecticidal activity against Culex pipiens pallens (mosquito) assessed as mortality at 0.25 ug/insect after 24 hr
[13] = system: Culex pipiens pallens; assay: Insecticidal activity against Culex pipiens pallens (mosquito) assessed as mortality at 0.5 ug/insect after 24 hr
[14] = system: Culex pipiens pallens; assay: Insecticidal activity against Culex pipiens pallens (mosquito) assessed as mortality at 1 ug/insect after 24 hr
[15] = system: Culex pipiens pallens; assay: Insecticidal activity against Culex pipiens pallens (mosquito) assessed as mortality at 2 ug/insect after 24 hr
[16] = system: Culex pipiens pallens; assay: Insecticidal activity against Culex pipiens pallens (mosquito) assessed as mortality at 4 ug/insect after 24 hr
[17] = system: Culex pipiens pallens; assay: Insecticidal activity against Culex pipiens pallens (mosquito) assessed as mortality at 5 ug/insect after 24 hr
[18] = system: Fusarium oxysporum; assay: Antifungal activity against Fusarium oxysporum OPS 118 after 7 days by agar dilution method; settings: OPS 118, 168 h
[19] = system: Wickerhamomyces anomalus; assay: Antifungal activity against Wickerhamomyces anomalus OPS 308 after 7 days by agar dilution method; settings: Hansenula anomala, OPS 308, 168 h
[20] = system: Penicillium expansum; assay: Antifungal activity against Penicillium expansum IFO 8800 after 7 days by agar dilution method; settings: IFO 8800, 168 h
[21] = system: Candida albicans; assay: Antifungal activity against Candida albicans ATCC 10231 after 7 days by agar dilution method; settings: ATCC 10231, 168 h
[22] = system: Trichophyton mentagrophytes; assay: Antifungal activity against Trichophyton mentagrophytes IFO 32412 after 7 days by agar dilution method; settings: IFO 32412, 168 h
[23] = system: Aspergillus niger; assay: Antifungal activity against Aspergillus niger ATCC 16404 after 7 days by agar dilution method; settings: ATCC 16404, 168 h
[24] = system: Musca domestica; assay: Insecticidal activity against Musca domestica (house fly) assessed as mortality at 0.031 ug/insect after 24 hr
[25] = system: Musca domestica; assay: Insecticidal activity against Musca domestica (house fly) assessed as mortality at 0.062 ug/insect after 24 hr
[26] = system: Musca domestica; assay: Insecticidal activity against Musca domestica (house fly) assessed as mortality at 0.125 ug/insect after 24 hr
[27] = system: Musca domestica; assay: Insecticidal activity against Musca domestica (house fly) assessed as mortality at 0.250 ug/insect after 24 hr
[28] = system: Culex pipiens pallens; assay: Insecticidal activity against Culex pipiens pallens (mosquito) assessed as mortality at 0.002 ug/insect after 24 hr
[29] = system: Culex pipiens pallens; assay: Insecticidal activity against Culex pipiens pallens (mosquito) assessed as mortality at 0.004 ug/insect after 24 hr
[30] = system: Culex pipiens pallens; assay: Insecticidal activity against Culex pipiens pallens (mosquito) assessed as mortality at 0.0005 ug/insect after 24 hr
[31] = system: Culex pipiens pallens; assay: Insecticidal activity against Culex pipiens pallens (mosquito) assessed as mortality at 0.008 ug/insect after 24 hr
[32] = system: Culex pipiens pallens; assay: Insecticidal activity against Culex pipiens pallens (mosquito) assessed as mortality at 0.001 ug/insect after 24 hr
[33] = system: Culex pipiens pallens; assay: Insecticidal activity against Culex pipiens pallens (mosquito) assessed as mortality at 0.00025 ug/insect after 24 hr
[34] = system: Musca domestica; assay: Insecticidal activity against Musca domestica (house fly) assessed as mortality at 0.015 ug/insect after 24 hr

## NN1C(=O)CSC1=S [AMINORHODANINE]
[1]
  Activity: 0%
[2]
  Activity: 10%
[3]
  Activity: 17.9%
[4]
  Activity: 36.7%
[5]
  Activity: 60%
[6]
  Activity: 63.3%
[7]
  Activity: 86.7%
[8]
  Activity: 100%
[9]
  Activity: 3.3%
[10]
  Activity: 16.7%
[11]
  Activity: 33.3%
[12]
  Activity: 53.3%
[13]
  Activity: 60%
[14]
  Activity: 86.7%
[15]
  Activity: 100%
[16]
  Activity: 100%
[17]
  Activity: 100%
[18]
  MIC: 400 µg/mL (≈ 2.7 mM)
[19]
  MIC: 25 µg/mL (≈ 0.169 mM)
[20]
  MIC: 100 µg/mL (≈ 0.675 mM)
[21]
  MIC: 12.5 µg/mL (≈ 0.0843 mM)
[22]
  MIC: 12.5 µg/mL (≈ 0.0843 mM)
[23]
  MIC: 6.25 µg/mL (≈ 0.0422 mM)

## CC(=O)NN1C(=O)CSC1=S [N-ACETYLAMINORHODANINE]
[8]
  Activity: 0%
[17]
  Activity: 0%
[18]
  MIC: > 1000 µg/mL
[19]
  MIC: > 1000 µg/mL
[20]
  MIC: > 1000 µg/mL
[21]
  MIC: > 1000 µg/mL
[22]
  MIC: > 1000 µg/mL
[23]
  MIC: > 1000 µg/mL

## O=C1CSC(=S)N1 [RHODANINE]
[8]
  Activity: 0%
[17]
  Activity: 0%
[18]
  MIC: 800 µg/mL (≈ 6.01 mM)
[19]
  MIC: 400 µg/mL (≈ 3 mM)
[20]
  MIC: > 1000 µg/mL
[21]
  MIC: 800 µg/mL (≈ 6.01 mM)
[22]
  MIC: 200 µg/mL (≈ 1.5 mM)
[23]
  MIC: 800 µg/mL (≈ 6.01 mM)

## COP(=S)(OC)Oc1ccc([N+](=O)[O-])c(C)c1 [FENITROTHION]
[24]
  Activity: 3.3%
[25]
  Activity: 46.7%
[26]
  Activity: 93.3%
[27]
  Activity: 100%
[28]
  Activity: 50%
[29]
  Activity: 86.7%
[30]
  Activity: 3.3%
[31]
  Activity: 100%
[32]
  Activity: 16.7%
[33]
  Activity: 0%
[34]
  Activity: 0%

## O=C(NN1C(=O)CSC1=S)c1ccccc1 [N-BENZOYLAMINORHODANINE]
[8]
  Activity: 0%
[17]
  Activity: 0%
[18]
  MIC: > 1000 µg/mL
[19]
  MIC: > 1000 µg/mL
[20]
  MIC: > 1000 µg/mL
[21]
  MIC: > 1000 µg/mL
[22]
  MIC: > 1000 µg/mL
[23]
  MIC: > 1000 µg/mL
